For test [1], the target named is T1, human progesterone receptor-A [PRA] isoform (Homo sapiens, UniProt P06401).
T1 construct: host or cells: insect SF21 cells (baculovirus)
T1 sequence (P06401 1-769 isoform P06401-2): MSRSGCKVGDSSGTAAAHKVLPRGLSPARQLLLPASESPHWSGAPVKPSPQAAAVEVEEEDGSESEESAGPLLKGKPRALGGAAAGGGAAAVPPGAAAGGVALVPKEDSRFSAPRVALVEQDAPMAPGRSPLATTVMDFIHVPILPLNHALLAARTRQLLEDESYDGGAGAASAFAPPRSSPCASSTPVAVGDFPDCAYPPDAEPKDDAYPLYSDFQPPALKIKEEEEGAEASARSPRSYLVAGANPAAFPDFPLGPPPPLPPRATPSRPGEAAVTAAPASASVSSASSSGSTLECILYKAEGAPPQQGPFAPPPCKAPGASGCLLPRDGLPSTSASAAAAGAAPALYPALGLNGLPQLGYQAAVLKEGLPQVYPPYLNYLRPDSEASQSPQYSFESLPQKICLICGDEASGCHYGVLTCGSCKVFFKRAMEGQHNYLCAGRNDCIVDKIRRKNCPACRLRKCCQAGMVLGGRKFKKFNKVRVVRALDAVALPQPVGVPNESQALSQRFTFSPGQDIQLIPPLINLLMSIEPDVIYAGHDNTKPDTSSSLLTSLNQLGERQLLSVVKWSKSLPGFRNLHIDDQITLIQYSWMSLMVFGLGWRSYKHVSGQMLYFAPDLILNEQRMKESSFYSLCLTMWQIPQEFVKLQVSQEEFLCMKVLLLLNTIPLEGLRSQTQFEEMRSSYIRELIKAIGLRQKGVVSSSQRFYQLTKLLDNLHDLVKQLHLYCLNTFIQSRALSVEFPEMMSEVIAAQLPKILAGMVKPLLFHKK
As to the kind of experiment: Radioligand binding with human progesterone receptor cytosol ([3H]-progesterone competition). As to conditions: PRA cytosol expressed in insect SF21 cells, [3H]Prog ~0.8 nM, 4° C. overnight; Ki by Cheng-Prusoff, KL ~4.5 nM; read-out: Ki (nM) PR.

Test [2] concerns the target T2, human glucocorticoid receptor-α [GRX] isoform (Homo sapiens, UniProt P04150).
T2 construct: host or cells: insect SF21 cells (baculovirus)
T2 sequence (P04150 1-777): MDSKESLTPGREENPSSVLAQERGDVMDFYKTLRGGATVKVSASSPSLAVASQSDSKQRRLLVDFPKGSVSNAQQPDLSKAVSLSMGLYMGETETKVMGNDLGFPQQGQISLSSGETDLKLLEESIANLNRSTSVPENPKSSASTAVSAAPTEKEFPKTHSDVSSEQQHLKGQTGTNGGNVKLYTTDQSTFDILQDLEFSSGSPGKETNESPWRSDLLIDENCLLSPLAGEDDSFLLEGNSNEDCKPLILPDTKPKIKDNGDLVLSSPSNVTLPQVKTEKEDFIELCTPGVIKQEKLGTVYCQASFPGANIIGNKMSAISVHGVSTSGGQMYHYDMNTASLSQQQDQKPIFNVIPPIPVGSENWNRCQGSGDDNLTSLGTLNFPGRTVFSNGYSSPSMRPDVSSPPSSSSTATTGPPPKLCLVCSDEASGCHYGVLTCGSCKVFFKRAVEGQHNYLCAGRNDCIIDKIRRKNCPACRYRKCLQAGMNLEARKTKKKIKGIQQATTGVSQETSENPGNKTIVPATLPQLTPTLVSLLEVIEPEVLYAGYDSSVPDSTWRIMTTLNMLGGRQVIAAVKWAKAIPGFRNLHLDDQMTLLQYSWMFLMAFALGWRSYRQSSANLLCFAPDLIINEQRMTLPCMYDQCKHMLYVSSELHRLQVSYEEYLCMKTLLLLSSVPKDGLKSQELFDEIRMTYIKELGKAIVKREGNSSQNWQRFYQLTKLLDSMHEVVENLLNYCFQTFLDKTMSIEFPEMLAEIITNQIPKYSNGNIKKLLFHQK
The experiment in a line: Radioligand binding with human glucocorticoid receptor cytosol ([3H]-dexamethasone competition). Conditions: GRX cytosol expressed in insect SF21 cells, [3H]-Dex ~0.9 nM, 4° C. overnight; Ki by Cheng-Prusoff, KL ~[…]; read-out: Ki (nM) GR.

Regarding `COc1c(O)ccc2c1-c1ccc3c(c1[C@H]([C@H]1C=CCCCC1)O2)C(C)=CC(C)(C)N3` [Example 247, (−)(5S,3′R)2,5-Dihydro-9-hydroxy-10-methoxy-2,2,4-trimethyl-5-(3-cycloheptenyl)-1H-[1]benzopyrano[3,4-f]quinoline], the Ki (as a rule, a measure of affinity in units of concentration, obtained from inhibition or displacement) in test [1] stood at 195 nM; in test [2] it was 0.86 nM.
The like results for `COc1c(O)ccc2c1-c1ccc3c(c1C(c1ccccc1)O2)C(C)=CC(C)(C)N3` (stereo not shown) [Example 248, 2,5-Dihydro-9-hydroxy-10-methoxy-2,2,4-trimethyl-5-phenyl-1H-[1]benzopyrano[3,4-f]quinoline] were, in that order, 870 nM and 1 nM.
With `COc1c(O)ccc2c1-c1ccc3c(c1C(c1cc(F)cc(F)c1)O2)C(C)=CC(C)(C)N3` (stereo not shown) [Example 249, 2,5-Dihydro-9-hydroxy-10-methoxy-2,2,4-trimethyl-5-(3,5-difluorophenyl)-1H-[1]benzopyrano[3,4-f]quinoline], the results for the Ki in test [1] and in test [2] were 488 nM and 0.8 nM, respectively.
The like results for `COc1c(O)ccc2c1-c1ccc3c(c1C(c1cc(F)c(F)c(F)c1)O2)C(C)=CC(C)(C)N3` (stereo not shown) [Example 250, 2,5-Dihydro-9-hydroxy-10-methoxy-2,2,4-trimethyl-5-(3,4,5-trifluorophenyl)-1H-[1]benzopyrano[3,4-f]quinoline] were, in that order, 1470 nM and 2.4 nM.
As for `COc1c(O)ccc2c1-c1ccc3c(c1[C@H]([C@@H]1C=CCC1)O2)C(C)=CC(C)(C)N3` [Example 252], the Ki in test [1] was 102 nM; in test [2], 0.39 nM.
For `COc1c(O)ccc2c1-c1ccc3c(c1[C@H]([C@H]1C=CCC1)O2)C(C)=CC(C)(C)N3` [Example 253, (−)(5S,3′R)2,5-Dihydro-9-hydroxy-10-methoxy-2,2,4-trimethyl-5-(3-cyclopentenyl)-1H-[1]benzopyrano[3,4-f]quinoline], the inhibitory constant (Ki) worked out at 42 nM in test [1] and 0.38 nM in test [2].
Taken in the same sequence, the figures for `COc1c(O)ccc2c1-c1ccc3c(c1C(c1ccc(F)cc1)O2)C(C)=CC(C)(C)N3` (stereo not shown) [Example 255, 2,5-Dihydro-9-hydroxy-10-methoxy-2,2,4-trimethyl-5-(4-fluorophenyl)-1H-[1]benzopyrano[3,4-f]quinoline] were 1430 nM and 1.5 nM.
For `COc1c(O)ccc2c1-c1ccc3c(c1C(c1cccc(C(F)(F)F)c1)O2)C(C)=CC(C)(C)N3` (stereo not shown) [Example 256, 2,5-Dihydro-9-hydroxy-10-methoxy-2,2,4-trimethyl-5-(3-trifluoromethylphenyl)-1H-[1]benzopyrano[3,4-f]quinoline], the Ki in test [1] came out at 266 nM; in test [2], 3.8 nM.
Taken in the same sequence, the figures for `COc1c(O)ccc2c1-c1ccc3c(c1C(c1cc(C(F)(F)F)cc(C(F)(F)F)c1)O2)C(C)=CC(C)(C)N3` (stereo not shown) [Example 257, 2,5-Dihydro-9-hydroxy-10-methoxy-2,2,4-trimethyl-5-(3-5-bistrifluoromethylphenyl)-1H-[1]benzopyrano[3,4-f]quinoline] were 1620 nM and 10 nM.
Taken in the same sequence, the figures for `COc1c(O)ccc2c1-c1ccc3c(c1C(c1ccc(Cl)c(C(F)(F)F)c1)O2)C(C)=CC(C)(C)N3` (stereo not shown) [Example 258, 2,5-Dihydro-9-hydroxy-10-methoxy-2,2,4-trimethyl-5-(3-trifluoromethyl-4-chlorophenyl)-1H-[1]benzopyrano[3,4-f]quinoline] were 879 nM and 10.7 nM.
The like results for `COc1c(O)ccc2c1-c1ccc3c(c1C(CC(C)C)O2)C(C)=CC(C)(C)N3` (stereo not shown) [Example 259, 2,5-Dihydro-9-hydroxy-10-methoxy-2,2,4-trimethyl-5-(2-methylpropyl)-1H-[1]benzopyrano[3,4-f]quinoline] were, in that order, 938 nM and 1.2 nM.
Consider `C=CCCC1Oc2ccc(O)c(OC)c2-c2ccc3c(c21)C(C)=CC(C)(C)N3` (stereo not shown) [Example 261, 2,5-Dihydro-9-hydroxy-10-methoxy-2,2,4-trimethyl-5-(3-butenyl)-1H-[1]benzopyrano[3,4-f]quinoline], for which the Ki in test [1] amounted to 161 nM; in test [2], 0.75 nM.
Taken in the same sequence, the figures for `COc1c(O)ccc2c1-c1ccc3c(c1C(Cc1ccccc1)O2)C(C)=CC(C)(C)N3` (stereo not shown) [Example 262, 2,5-Dihydro-9-hydroxy-10-methoxy-5-(phenylmethyl)-2,2,4-trimethyl-1H-[1]benzopyrano[3,4-f]quinoline] were 150 nM and 1.1 nM.
Taken in the same sequence, the figures for `COc1c(O)ccc2c1-c1ccc3c(c1[C@H](C1CCCC1)O2)C(C)=CC(C)(C)N3` [Example 264, (−)(S)5-Cyclopentyl-2,5-dihydro-9-hydroxy-10-methoxy-2,2,4-trimethyl-1H-[1]benzopyrano[3,4-f]quinoline] were 307 nM and 0.51 nM.
The like results for `C#CCC1Oc2ccc(O)c(OC)c2-c2ccc3c(c21)C(C)=CC(C)(C)N3` (stereo not shown) [Example 266, 2,5-Dihydro-9-hydroxy-10-methoxy-5-(3-propynyl)-2,2,4-trimethyl-1H-[1]benzopyrano[3,4-f]quinoline] were, in that order, 102 nM and 0.71 nM.
As for `COc1c(O)ccc2c1-c1ccc3c(c1C(C(C)C)O2)C(C)=CC(C)(C)N3` (stereo not shown) [Example 267, 2,5-Dihydro-9-hydroxy-10-methoxy-2,2,4-trimethyl-5-(2-propyl)-1H-[1]benzopyrano[3,4-f]quinoline], the Ki in test [1] stood at 938 nM; in test [2] it was 0.79 nM.
The like results for `COc1ccc(C2Oc3ccc(O)c(OC)c3-c3ccc4c(c32)C(C)=CC(C)(C)N4)s1` (stereo not shown) [Example 268, 2,5-Dihydro-9-hydroxy-10-methoxy-2,2,4-trimethyl-5-(5-methoxy-2-thienyl)-1H-[1]benzopyrano[3,4-f]quinoline] were, in that order, 486 nM and 0.84 nM.
The like results for `COc1c(O)ccc2c1-c1ccc3c(c1[C@H]([C@@H]1C=CCCC1)O2)C(C)=CC(C)(C)N3` [Example 272, (−)(5S,3′S)2,5-Dihydro-9-hydroxy-10-methoxy-2,2,4-trimethyl-5-(3-cyclohexenyl)-1H-[1]benzopyrano[3,4-f]quinoline] were, in that order, 66.4 nM and 0.39 nM.
The like results for `COc1c(O)ccc2c1-c1ccc3c(c1[C@H]([C@H]1C=CCCC1)O2)C(C)=CC(C)(C)N3` [Example 273] were, in that order, 35.8 nM and 0.56 nM.
Turning to `CCC1=C[C@@H]([C@H]2Oc3ccc(O)c(OC)c3-c3ccc4c(c32)C(C)=CC(C)(C)N4)CCC1` [Example 277], the results for the Ki in test [1] and in test [2] were 272 nM and 11.3 nM, respectively.
Taken in the same sequence, the figures for `COc1c(O)ccc2c1-c1ccc3c(c1C(C1CCCCC1)O2)C(C)=CC(C)(C)N3` (stereo not shown) [Example 278, 2,5-Dihydro-9-hydroxy-10-methoxy-2,2,4-trimethyl-5-cyclohexyl-1H-[1]benzopyrano[3,4-f]quinoline] were 533 nM and 1.1 nM.
The like results for `COc1c(O)ccc2c1-c1ccc3c(c1CO2)C(C)=CC(C)(C)N3` [Example 279, 2,5,5-Trihydro-9-hydroxy-10-methoxy-2,2,4-trimethyl-1H-[1]benzopyrano[3,4-f]quinoline] were, in that order, 1900 nM and 12.4 nM.
Taken in the same sequence, the figures for `C=C(CO)CC1Oc2ccc(O)c(OC)c2-c2ccc3c(c21)C(C)=CC(C)(C)N3` (stereo not shown) [Example 280, 2,5-Dihydro-9-hydroxy-10-methoxy-2,2,4-trimethyl-5-(2-hydroxymethyl-3-propenyl)-1H-[1]benzopyrano[3,4-f]quinoline] were at least 10000 nM and 1.6 nM.

Values taken from patent publication US6506766B1 (Abbott Laboratories, priority 1998, dated 2003).
